Reference: US20260022095A1, “COMPOUNDS USEFUL FOR THE PREPARATION OF VARIOUS AGROCHEMICALS AND MARKERS THEREOF” (ADAMA AGAN LTD., priority 2021, published 2026)

Test: Sunlight exposure of buffered aqueous Tetflupyrolimet solutions, Storage Marker formation by HPLC-MS
Type: physicochemical
Conditions: natural sunlight approximately 2 months; for concentration of the Storage Marker as compared to the solution buffered at pH=7: quartz tube
Experimental: Three lots of about 50 mg of Tetflupyrolimet were each suspended in about 2 ml of a 2% solution of acetonitrile in water, and sonicated for about 20 minutes.
Into each, about 0.1 ml of a different buffer was added, pH=4, pH=7 and pH=10 respectively.
The three solutions were each filtered and introduced to quartz tubes and exposed to natural sunlight for approximately 2 months.
• Column: Agilent Zorbax Eclipse XDB C18, 150×4.6 mm ID, 5.0 μm • Injection volume: 5 μL • Oven temperature: 40° C. • Detector: UV, □=230, 250, 280 nm • Solvent delivery system conditions at flow rate of 1.0 ml/min: […]

SMILES: CN1C[C@H](c2cccc(C(F)(F)F)c2)[C@@H](C(=O)Nc2ccccc2F)C1=O [Tetflupyrolimet, (3S,4S)—N-(2-fluorophenyl)-1-methyl-2-oxo-4-(3-(trifluoromethyl)phenyl) pyrrolidine-3-carboxamide]
- formation of Storage Marker (HPLC-MS) (2% acetonitrile in water, buffered at pH=4, pH=7 and pH=10, quartz tubes): formation of Storage Marker in each solution
- concentration of the Storage Marker as compared to the solution buffered at pH=7 (solution buffered at pH 4): approximately an order of magnitude higher concentration of the Storage Marker
- concentration of the Storage Marker as compared to the solution buffered at pH=7 (solution buffered at pH 10): approximately an order of magnitude higher concentration of the Storage Marker
